A short description of data set [1]: ANTS/DPX leakage of POPE/POPG LUVs. The data set is classed as biochemical. To be noted: for Leakage: POPE/POPG LUVs, lipid 50 μM, pH 7.4, 37°C. The protocol:
(§1) Large unilamellar vesicles (LUVs) of ∼100 nm size were prepared and assayed for AMP-induced fluorescence leakage as described previously ([23]). Intrinsic lipid curvatures were determined using a SAXSpace small-angle x-ray camera (Anton Paar, Graz, Austria) applying previously developed procedures ([24]). Monte Carlo (MC) simulations were performed using the Metropolis scheme and computationally efficient implicit-solvent coarse-grained models. Lipids were described by a three-bead model developed by Cooke and Deserno ([25]), and the peptide was modeled by a patchy spherocylinder ([26]). Free-energy calculations for peptide translocation were performed using the Wang-Landau method ([27]). For details of experimental and simulation procedures, see the Supporting Material. […]
Lipid films (20 mg total lipid) for dye-release experiments were prepared by mixing the appropriate amounts of dissolved phospholipids before evaporation of solvents under a stream of nitrogen and stored in vacuum overnight. After addition of Hepes buffer containing the fluorophor/quencher ANTS/DPX (10 mM Hepes, 68 mM NaCl, 12.5 mM ANTS, 45 mM DPX, pH 7.4), formation of lipid vesicles was achieved by equilibration at 15°C above the lipid’s melting temperature and intermittent vigorous vortex mixing. PE/PG-mixtures were additionally homogenized by six freeze/thaw-cycles. Large unilamellar vesicles (LUVs) were obtained by 25 cycles of extrusion of the hydrated liposomes through a polycarbonate filter (Millipore-IsoporeTM, Merck, Vienna) of 0.1 µm pore size above the lipid’s melting temperature. Non-encapsulated fluorophore and quencher were removed by size-exclusion chromatography using SephadexTM G-75 (Sigma-Aldrich, Vienna) gel as described earlier (1). LUVs were eluted with Hepes buffer (10 mM Hepes, 140 mM NaCl, pH 7.4). Liposomal lipids were quantified by the determination of lipid phosphorus according the method described by (2). The final LUV concentration for dye-release experiments was adjusted to 50 µM in Hepes buffer (10 mM Hepes, 140 mM NaCl, pH 7.4). […]
Leakage of the aqueous content of ANTS/DPX-loaded LUVs upon incubation with peptides was determined according to (9) and as detailed previously (1). Briefly, 2 ml of LUV suspension was filled into quartz cuvettes and equilibrated at 37°C for 5 minutes. Incremental amounts of peptide solutions prepared in Hepes buffer were added to the LUV suspension with µ-pipettes and mixed using a magnetic stirrer to achieve final peptide concentrations ranging from 0.016 - 1 μM, corresponding to peptide-to-lipid molar ratios from 1:3200 to 1:50. Fluorescence emission was recorded 5 minutes before and after the addition of peptides on a Cary Eclipse Fluorescence Spectrophotometer (Varian Inc., now Agilent Technologies, California, US) using an excitation wavelength of λex = 360 nm and an emission wavelength λem = 530 nm. The slit widths for excitation and emission monochromators were set to 10 nm.
(§2) Percentage of leakage was calculated from the fraction of the leakage (10) […]
(§3) where F is the measured fluorescence, F0 is the initial fluorescence without peptide, and Fmax is the fluorescence corresponding to 100% leakage gained by addition of 1% Triton X-100. […]
In order to verify the dimeric or monomeric state of peptides, 2 µg of peptides were dissolved in loading buffer without DTT and separated by a one-dimensional SDS-PAGE using 5 % stacking and 18 % separating gels according to the method of Laemmli (11). […]

Data set [2] can be described thus: ANTS/DPX leakage of POPC/Chol LUVs. The data set is classed as biochemical. To be noted: lipid 50 μM; for Leakage: dimers and mixture, highest concentration studied (1 μM), pH 7.4, 37°C. The method, then:
as §1
Lipid films (20 mg total lipid) for dye-release experiments were prepared by mixing the appropriate amounts of dissolved phospholipids before evaporation of solvents under a stream of nitrogen and stored in vacuum overnight. After addition of Hepes buffer containing the fluorophor/quencher ANTS/DPX (10 mM Hepes, 68 mM NaCl, 12.5 mM ANTS, 45 mM DPX, pH 7.4), formation of lipid vesicles was achieved by equilibration at 15°C above the lipid’s melting temperature and intermittent vigorous vortex mixing. […] Liposomal lipids were quantified by the determination of lipid phosphorus according the method described by (2). […]
Leakage of the aqueous content of ANTS/DPX-loaded LUVs upon incubation with peptides was determined according to (9) and as detailed previously (1). […] Fluorescence emission was recorded 5 minutes before and after the addition of peptides on a Cary Eclipse Fluorescence Spectrophotometer (Varian Inc., now Agilent Technologies, California, US) using an excitation wavelength of λex = 360 nm and an emission wavelength λem = 530 nm. […]
as §2, §3

The subject of data set [3] is E. coli K12. The data set can be described thus: MIC, inhibition of bacterial growth (turbidimetric, Bioscreen C). It counts as cell-based, Escherichia coli. To be noted: E. coli K12, Mueller-Hinton broth without Ca2+, 37°C, no increment of turbidity after 48 h, CLSI guidelines. The method, then:
To study the effect of magainins on metabolically active bacteria, we assessed the antimicrobial activity of the peptides by determining the MIC values according to Clinical and Laboratory Standards Institute (CLSI, formerly National Committee for Clinical Laboratory Standards) guidelines.
Inhibition of bacterial growth by frog peptides was determined using an automated turbidimetric-based system (Bioscreen C, Labsystem, Helsinki, Finland), which measures absorbance of cell cultures in 100-well plates at regular time intervals (λ = 580 nm). Assays were performed in Mueller-Hinton (MH) broth without Ca2+ (18) using Bioscreen polystyrene honeycomb 100-well plates. Briefly, serial dilutions of the AMPs or control antibiotics (gentamicin and ampicillin B) were made in MH broth and dispensed with a multi-pipette into […]
polystyrene honeycomb 100-well plates. E. coli K12 cells grown for 18–20 h on agar plates were suspended in saline adjusting the turbidity to an optical density at λ=565 nm (OD565) of 0.5 (~1 × 10^8 cells/mL) using a DEN-1B densitometer (Grant Instruments, Cambridge, UK).
A fifty-fold dilution of this E. coli suspension prepared in MH broth was mixed with 50 µL (1:1 volume ratio) of a given peptide solution by three times up and down pipetting. Resulting cell suspensions were grown at 37°C with continuous, low amplitude shaking. The turbidity was measured in intervals of 5 minutes (filter bandwidth: λ= 420 – 580 nm). MIC was considered as the minimum concentration of peptide that inhibited any increment of turbidity […]
2011. Studies on lactoferricin-derived Escherichia coli membrane-active peptides reveal differences in the mechanism of N-acylated versus nonacylated peptides. J Biol Chem […]
2. Broekhuyse, R. M. 1968. Phospholipids in tissues of the eye. […]
vinyl-ether phospholipids. Biochim Biophys Acta 152:307–315.
Chemistry and physics of lipids 154:64–67.
8. Israelachvili, J. N. 2011. Intermolecular and surface forces, 3rd ed. Academic Press, […]

Data set [4] can be described thus: ANTS/DPX leakage of POPC/POPG LUVs. The conditions noted are these: 1 μM peptide, lipid 50 μM, pH 7.4, 37°C, three independent measurements. It counts as biochemical. The method, then: as §1
(§4) Lipid films (20 mg total lipid) for dye-release experiments were prepared by mixing the appropriate amounts of dissolved phospholipids before evaporation of solvents under a stream of nitrogen and stored in vacuum overnight. […] Liposomal lipids were quantified by the determination of lipid phosphorus according the method described by (2). […]
(§5) Leakage of the aqueous content of ANTS/DPX-loaded LUVs upon incubation with peptides was determined according to (9) and as detailed previously (1). […]
as §2

A short description of data set [5]: ANTS/DPX leakage of lyso-PE/POPE/POPG LUVs. The data set is classed as biochemical. To be noted: 1 μM peptide, lipid 50 μM, pH 7.4, 37°C, three independent measurements. The method, then: as §1, §4, §5, §2
A short description of data set [6]: ANTS/DPX leakage of POPC LUVs. The data set is classed as biochemical. The conditions noted are these: within studied concentration range 0.016-1 μM, lipid 50 μM, pH 7.4, 37°C, three independent measurements. The method, then: as §1, §4, §5, §2
The conditions of data set [7]: cited from earlier work. The source says:
Table 2 Thermodynamics of AMP Insertion in PC Membranes According to the Wimley-White Hydrophobicity Scale | column: % helix in PC

For data set [8] the following is noted: cited from earlier work. The source says:
Intriguingly, however, cytoplasmic membranes of Gram-negative bacteria are enriched in lipids with negative intrinsic curvature, such as phosphatidylethanolamine (PE) ([20]). This prompted us to correlate membrane-permeabilizing activities of magainin monomers and dimers in different lipid-only model systems with various intrinsic curvatures J0 determined from small-angle x-ray scattering (SAXS). In particular, we studied the activity of L18W-PGLa and MG2a, as well as their analogs containing GGC linkers, which were used to form the L18W-PGLa-MG2a hybrid peptide (Fig. 1). The choice of L18W-PG ...
This is another data set of the same source.

Setting [9] is: dimers, plateau/final value at high peptide concentration (up to 1 μM).
Setting [10] is: individual peptides at concentrations above 0.25 μM up to 1 μM (remained at the same level), three independent measurements.

Marks after values point to notes of the source that are not given here. Bridge positions count the residues as written; N and C are the ends. Ends that are not written are not given here. I, II: the chains in the order shown.

Take “I: GIGKFLHSAKKFGKAFVGEIMNSGGC-NH2 / II: GIGKFLHSAKKFGKAFVGEIMNSGGC-NH2 (disulfide I:26-II:26 (inferred)) [MG2a homodimers]”: the Leakage in data set [1] (setting [9]) is on record as around 60%; in data set [2] it was “not able to induce significant dye release”. In addition, the MIC – broadly, the lowest concentration that inhibits growth of the organism – in data set [3] was found to be 7.8 µg/mL.
“I: GMASKAGAIAGKIAKVAWKALGGC-NH2 / II: GMASKAGAIAGKIAKVAWKALGGC-NH2 (disulfide I:24-II:24) [L18W-PGLa homodimers]”: in data set [1] (setting [9]), the Leakage is reported as around 100%. Also, in data set [1] (POPE/POPG vesicles, DTT (40 μM) added to peptide solution before mixing with LUVs), the “Permeabilization capabilities after DTT reduction” value is listed as “identical with that of L18W-PGLa peptide”. For the same substance, in data set [2], the Leakage is reported as around 74% and the “Peptide concentration above which active (leakage)” value was above 0.1 µM. Moreover, the MIC in data set [3] is around 7.8 µg/mL.
For the substance GMASKAGAIAGKIAKVAWKAL-NH2 [L18W-PGLa], the Leakage result in data set [4] is “full LUV leakage”; in data set [1] (setting [10]), at most 6%; in data set [5], “full LUV leakage”. The Maximal leakage in data set [6] was at most 10%. Besides, in data set [3], the MIC is around 31.25 µg/mL. In addition, the “% helix in PC” value in data set [7] was 72 ^b %. Further, the “Dye release from lipid vesicles compared to native PGLa” value in data set [8] is “almost identical to that induced by native PGLa”.
On to GIGKFLHSAKKFGKAFVGEIMNS-NH2 [MG2a], for which the Leakage in data set [1] (setting [10]) is on record as at most 6%. Besides, the minimum inhibitory concentration (MIC) in data set [3] is 62.5 µg/mL. The “% helix in PC” value in data set [7] is recorded as 83 ^a %.

These data come from publication PMC5937145, “Synergism of Antimicrobial Frog Peptides Couples to Membrane Intrinsic Curvature Strain” (Biophysical Journal, 2018).
